By melting point is commonly meant the temperature, or range, at which the solid turns liquid. Turning to `CC(C)(C)OC(=O)Nc1ccc(C#Cc2nccs2)cc1NC(=O)CC(=O)c1cccc(C#N)c1`, the melting point came out at 131 °C.

As to `COc1ccc(Nc2nc(Cl)c3sccc3n2)c(C)c1`, the melting point lay in the range of 151 to 153 °C.

As for `Cc1cc(I)cc2c(=O)[nH]oc12`, the melting point lay in the range of 232 to 233 °C.

As for `CC(C)c1nn(-c2ccc(C(F)(F)F)nn2)cc1CCCO`, the melting point is 113 to 114 °C.

With `O=C(CO)Nc1ccc(O)cc1`, the melting point was 141 to 143 °C.

As for `CS(=O)c1nccc(N)n1` (stereo not drawn), the melting point lay in the range of 158 to 159 °C.

On to `O=C(O)C1CC=CCC1C(=O)N1CCc2cc(S(=O)(=O)N3CCN(c4cccc(Cl)c4)CC3)ccc21` (stereo not drawn), for which the melting point is 146 to 148 °C.

For the compound `CCOC(=O)COc1cccc2c1CC(Br)C2=O` (stereo not drawn), the melting point was 60 to 63 °C.

`CC(=O)Nc1ccc(C2=NNC(=O)NC2C)cc1Cl` (stereo not drawn) returned a melting point of 250 to 252 °C.

`COc1cccc(-c2cnc3[nH]cc(C(=O)C4(C)CCCCC4)c3n2)c1` showed a melting point of 173 to 175 °C.

In the case of `COc1cc(OC)nc(C2(OC)OC(=O)c3c(Cl)cccc32)n1` (stereo not drawn), the melting point was 180 to 183 °C.

`N#Cc1ccccc1Nc1cc2c(cc1Nc1ccccc1)C(=O)NC2=O`: the melting point was 115 to 117 °C.

As for `CC(=O)c1cc(Cl)c(N=C=O)c(Cl)c1`, the melting point was 138 to 140 °C.

For `Cc1nc(N2CCN(Cc3ccc(C(F)(F)F)o3)C2=O)sc1C(=O)NCc1ccccc1`, the melting point is 143 to 145 °C.

`CCC1CC(=O)c2c(NC(=O)C(=O)O)ccc(C)c21` (stereo not drawn) registered a melting point of 176 to 177 °C.

As to `CCOC(=O)CC(=O)c1csc(-c2ccccc2)n1`, the melting point lay in the range of 66 to 68 °C.

`CCCNC(=O)C(O)C1(O)CCC2C3CCC4=CC(=O)C=CC4(C)C3C(O)CC21C` (stereo not drawn) came in with a melting point of 251 to 253 °C.

Compound `C[C@@H](Nc1ccc([N+](=O)[O-])cc1)C(=O)O` had a melting point of 238 to 244 °C.

`CC1(C)CC2(CC(C)(C)N1c1nc(N(CCO)CCO)nc(N3CCOCC3)n1)OCCO2`: the melting point lay within 135 to 140 °C.

On to `CCOC(=O)C1(C(=O)Nc2ccc(Br)cc2C)OC1C` (stereo not drawn), for which the melting point lay within 57 to 60 °C.

In the case of `Nc1ccc(Sc2c(NCC=Cc3ccccc3)cc(C(=O)O)cc2S(N)(=O)=O)cc1`, the melting point was 228 to 232 °C.

As for `NS(=O)(=O)c1ccc(-n2nc(C(F)(F)F)cc2-c2ccc(-c3ccco3)cc2)c(Cl)c1`, the melting point is 190 °C.

`NC(=O)N1CCN(c2n[nH]c3ccccc23)CC1` showed a melting point of 158 to 160 °C.

`O=C(Oc1ccc(Oc2ccccc2)cc1)Oc1ccc([N+](=O)[O-])cc1`: the melting point was 113 to 115 °C.

Turning to `O=S(=O)(NCCc1ccc(OCc2nnn[nH]2)cc1)c1ccc(Cl)cc1`, the melting point was 136 °C.

`Cc1nn(Cc2ccccc2)c2c1c(=O)n(-c1ccccc1)c1ncccc21`: the melting point was 274 to 276 °C.

For `NNC(=O)C1(N)CCN(Cc2ccccc2)CC1`, the melting point came to 231 °C.

Take `Cn1nc(-c2ccccc2)nc1-c1cccnc1`: the melting point was 97 to 98 °C.

Take `COC(=O)c1cnn(-c2cccc(Cl)c2)c1C(N)=O`: the melting point fell in the range of 191 to 192 °C.

Consider `N#CSc1nc(C(F)(F)F)nc2ccccc12`, for which the melting point lay in the range of 134 to 136 °C.

For the compound `CC[C@@H]1C[C@H](NC(=O)OCc2ccccc2)c2cc(C(F)(F)F)ccc2N1`, the melting point was 154 to 155 °C.

Compound `CNCCCc1c[nH]c(-c2ccc(F)cc2)c1-c1ccncc1` displayed a melting point of 193 to 198 °C.

Take `Cc1cc(CO)oc1CN(C)C`: the melting point fell in the range of 104 to 106 °C.

`Nc1ccnc(SCc2ccccn2)n1` showed a melting point of 133 to 134 °C.

On to `Cc1cc(-c2cc(C(F)(F)F)n3ncc(C(=O)Nc4cccc(S(=O)(=O)N5CCOCC5)c4)c3n2)ccc1Cl`, for which the melting point is 251 °C.

Regarding `CC(=O)O[C@@H](C)C(=O)Nc1c(C(=O)c2ccccc2)[nH]c2cc(Cl)ccc12`, the melting point lay within 80 to 85 °C.

In the case of `Cc1c(Cl)cc(-c2ccc(OC(=O)N3CCOCC3)nn2)cc1Cl`, the melting point lay in the range of 155 to 159 °C.

For the compound `CC(=O)OC1(O)C(C(C)(C)C)=CC(C(=O)c2ccccc2O)=CC1C(C)(C)C` (stereo not drawn), the melting point is 182 to 186 °C.

Regarding `O=C(O)C1CCc2c(c3ccccc3n2C(=O)c2ccccc2)C1` (stereo not drawn), the melting point lay in the range of 188 to 190 °C.

With `CC1Nc2ccc(NC(=O)c3ccc(-c4ccccc4)cc3)cc2N1C` (stereo not drawn), the melting point is 270 °C.

As to `CC(C)(C)OC(=O)N[C@@H](CCC(=O)OCc1ccccc1)C(=O)OCc1ccccc1`, the melting point lay within 73 to 76 °C.

Compound `O=C(Nc1ccc(OCCN2CCOCC2)c2ccccc12)OCC(Cl)(Cl)Cl` gave a melting point of 124 to 125 °C.

With `COC(=O)NN=Cc1nc(-c2cccc(C(F)(F)F)c2)[nH]c1C`, the melting point was 251 to 252 °C.

The compound `COC(=O)C(C#N)=Cc1cc2c(cc1C)N(CCOC(C)=O)C(C)(C)CC2C` (stereo not drawn) had a melting point of 134 to 135 °C.

Turning to `CCCCCCCCCCCCCCCCN(CC(O)CO)C(=O)CCCCC` (stereo not drawn), the melting point amounted to 38.8 °C.

The compound `O=c1c(Cc2ccccc2)c(-c2ccccc2)oc2cc(OCC3CO3)ccc12` (stereo not drawn) showed a melting point of 133 to 138 °C.

For the compound `COc1ccc(C(=O)Nc2ccc(C(=O)N3CCCC3)cc2)cc1C12CC3CC(CC(C3)C1)C2`, the melting point is 239 to 242 °C.

As to `Cc1noc(NS(=O)(=O)c2ccccc2-c2cc3ccccc3n2S(=O)(=O)c2ccccc2)c1C`, the melting point fell in the range of 207 to 209 °C.

In the case of `O=C(O)C(Cc1ccccc1)Oc1ccc(-c2ccc(-c3c(Cc4ccc(O)c(O)c4)sc4ccccc34)cc2)cc1` (stereo not drawn), the melting point lay within 108 to 110 °C.

As for `CCc1nc2cnc3cc(Br)ccc3c2n1CC1CCN(C(=O)OC(C)(C)C)CC1`, the melting point was in the range of 208 to 209 °C.

`c1ccc(CN2CCc3[nH]c4cccc(-c5ccccc5)c4c3CC2)cc1` came in with a melting point of 161 to 163 °C.

`COc1ccc2c(c1)C(=O)c1cccc(OC(C)C)c1-2`: the melting point lay within 89 to 90 °C.

In turn, `Nc1nc(N)c(Br)c(OCCOCP(=O)(O)O)n1` returned a melting point of 218 °C.

On to `CC(C)(C)c1cc(NC(=O)NNC(=O)c2ccc([N+](=O)[O-])cc2)cc(C(C)(C)C)c1O`, for which the melting point was in the range of 163 to 164 °C.

`CCOC(=O)COc1ccc2c(=O)c3c(oc2c1)C(=Cc1ccccc1)CC3` gave a melting point of 152 to 154 °C.

In turn, `Cc1c(Cl)ccc(S(=O)(=O)Cl)c1C#N` displayed a melting point of 69 to 72 °C.

`CC1(C)CC(N2CCCCCC2=O)CC(C)(C)N1O` had a melting point of 212 to 215 °C.

As to `Cc1cc2c(cc1C#N)OCC(C)(C)C=C2c1ccccn1`, the melting point amounted to 136 °C.

In turn, `CC(=O)OCC(=O)Nc1ccc(C(CC2CCCC2)C(=O)Nc2nccs2)cc1` (stereo not drawn) showed a melting point of 90 to 95 °C.

`O=C(Oc1ccc(-c2cc3ccc(OC(=O)c4ccccc4)cc3s2)cc1)c1ccccc1`: the melting point was in the range of 216 to 218 °C.

`O=C(O)CCCc1cc2nc(Cl)ccc2n1S(=O)(=O)c1cccc(Cl)c1Cl` gave a melting point of 173 to 174 °C.

In turn, `O=C(Nc1ccc(C[C@H](NS(=O)(=O)N2CCSCC2)C(=O)O)cc1)c1c(Cl)cncc1Cl` came in with a melting point of 173 °C.

Consider `O=P(c1ccccc1)(c1ccccc1)c1ccc(P(=O)(c2ccccc2)c2ccccc2)nn1`, for which the melting point was 248 to 252 °C.

The compound `O=C(NCc1ccccc1F)c1ccc2cnccc2n1` yielded a melting point of 110 to 111 °C.

`COCc1cn(-c2cccc(C(F)(F)F)c2)nc(C(=O)OC)c1=O` gave a melting point of 138 to 140 °C.

For `COc1cc(OC)c2c(=O)[nH]c(-c3ccc(N4CCC(O)CC4)cc3)nc2n1`, the melting point was 284 to 286 °C.

On to `COc1cccc2c1OC1C3CCC4(C(=O)N(CC5CC5)CCC214)C(C(C)(O)C(C)(C)C)C3` (stereo not drawn), for which the melting point is 205 to 206 °C.

Regarding `COC(=O)/C=C(C)/C=C/C(F)=C(C)/C=C/c1c(C)sc(C)c1C`, the melting point was 126 to 128 °C.

Regarding `CN(C)c1ccc(-c2n[nH]c3c2c(=O)n(-c2ccccc2)c2ncccc32)cc1`, the melting point is above 300 °C.

Compound `CCN(CC)c1nc(NCCCCO)nc(Nc2ccc3cc(-c4ccccc4)c(=O)oc3c2)n1` yielded a melting point of 124 to 126 °C.

For the compound `CSc1ccc(C(C#N)=NO)cc1`, the melting point lay in the range of 132 to 133 °C.

Take `COc1cc2ccc3nc4ccccc4cc3c2cc1OC`: the melting point was in the range of 190 to 192 °C.

Consider `O=C(O)C(CN1CCCC1)C(C(=O)O)P(=O)(O)O` (stereo not drawn), for which the melting point is 122 to 124 °C.

`CCOC(=O)c1c(CN2CCOCC2)nc2cc(OC)c(OC)cc2c1-c1ccc(OC)cc1` registered a melting point of 165 to 166 °C.

Compound `Cc1cccc2c(-c3ccc(Br)cc3)nccc12` showed a melting point of 126 to 128 °C.

Regarding `COc1ccc(-c2nnc3c4ccccc4c(Nc4cccc(-c5nnn(C)n5)c4)nn23)cc1`, the melting point was in the range of 256 to 259 °C.

Take `CN(C)CCNC(=O)Cn1c(-c2ccc(Cl)cc2)nc2cccnc21`: the melting point is 195 to 196 °C.

In turn, `N#Cc1ccc(-c2cc(-c3ccc(C#N)cc3[N+](=O)[O-])on2)cc1` returned a melting point of 280 to 281 °C.

Regarding `CCOC(=O)C(C)(C)Oc1ccc(OCCc2nc(-c3ccc(Br)cc3)oc2C)cc1`, the melting point lay within 78 to 79 °C.

In turn, `Cc1nsc(CCCOc2c(C)cc(-c3noc(C(F)F)n3)cc2C)n1` had a melting point of 62 to 64 °C.

For `O=C1c2ccccc2C(=O)N1CC(=O)N1c2ccccc2N(Cc2ccccc2)C(=O)C(Cc2ccccc2)C1C(F)(F)F` (stereo not drawn), the melting point fell in the range of 262 to 263 °C.

With `OCc1ccc(O)c(CO)c1CNCCCCCCOCC1CCCCC1`, the melting point was 72 to 74 °C.

In turn, `CCOC(=O)c1ccccc1N(CC(=O)N(C)c1ccccc1)C(=O)C(F)(F)F` had a melting point of 95 °C.

`CCOc1nc(OCC)c([N+](=O)[O-])c(N2CCS(=O)CC2)n1` registered a melting point of 130 to 132 °C.

As for `N#Cc1nn(-c2c(Cl)cc(C(F)(F)F)cc2Cl)c(I)c1SC(F)(F)F`, the melting point is 187 to 188 °C.

`Oc1ccc2c(c1)COc1c-2cc2ccc(O)cc2c1-c1ccoc1` yielded a melting point of 216 to 218 °C.

Regarding `COc1ccc(C(=O)CC(=O)c2snc(Cl)c2Cl)cc1`, the melting point was 138 to 139 °C.

`N#Cc1ncn2c(-c3cccnc3)ccnc12` returned a melting point of 258 to 260 °C.

Values taken from a melting point compilation (Tetko et al.; mined from patent text by program, amines drawn as free bases though some values may be those of a salt).
